Measured values as given in ChEMBL document CHEMBL1134660, “Design, synthesis, and evaluation of a long-acting, potent analogue of gonadotropin-releasing hormone” (J Med Chem, 2001).

Molecular target: T1, Gonadotropin-releasing hormone receptor (Rattus norvegicus, UniProt P30969)
T1 sequence (P30969 whole entry): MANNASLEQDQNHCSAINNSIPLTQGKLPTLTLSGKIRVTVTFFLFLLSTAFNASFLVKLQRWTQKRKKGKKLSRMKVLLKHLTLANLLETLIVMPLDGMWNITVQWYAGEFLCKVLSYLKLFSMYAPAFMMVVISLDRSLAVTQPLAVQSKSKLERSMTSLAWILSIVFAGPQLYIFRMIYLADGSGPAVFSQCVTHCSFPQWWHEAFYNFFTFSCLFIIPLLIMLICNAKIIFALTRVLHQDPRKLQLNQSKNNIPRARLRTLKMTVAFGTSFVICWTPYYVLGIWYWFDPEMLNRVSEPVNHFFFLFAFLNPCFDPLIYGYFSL
Assay: Evaluated for gonadotropin-releasing hormone receptor binding by displacing the 50% of the bound tracer [125I][D-Lys6]-GnRH radioligand in rat pituitary receptors

CC(C)C[C@H](NC(=O)[C@@H](CCCCNC(=O)CCCC(=O)OCc1ccc2c(c1)C(=O)c1ccccc1C2=O)NC(=O)[C@H](Cc1ccc(O)cc1)NC(=O)[C@H](CO)NC(=O)[C@H](Cc1c[nH]c2ccccc12)NC(=O)[C@H](Cc1c[nH]cn1)NC(=O)[C@@H]1CCC(=O)N1)C(=O)N[C@@H](CCCNC(=N)N)C(=O)N1CCC[C@H]1C(=O)NCC(N)=O
IC50: 2 pM
